Assay results taken from EP4121415B1, “INHIBITORS OF CYTOKININ OXIDASE DERIVED FROM 1-[2-(HYDROXYALKYL)PHENYL]-3-YLUREA, USE THEREOF AND PREPARATIONS CONTAINING THESE DERIVATIVES” (Univerzita Palackého v Olomouci, priority 2020, dated 2021).
Where “and” joins values, the source holds several entries; their conditions need not be identical. Equal values may be shown once.

Assays:
[1] = tested on: Arabidopsis thaliana (ecotype Col-0); experiment: abiotic stress (saline, osmotic) assay on Arabidopsis seedlings; assay type: in vivo; settings: 10 nM, 6 days of growth after transfer
Method: Compound 61 was tested for its ability to alleviate the effects of abiotic stress, represented by application of 100 mM NaCl (saline stress) or 100 mM mannitol (osmotic stress), respectively. The assay was performed as described in (Ugena et al., 2018, Front Plant Sci. 9, 1327. doi: 10.3389/fpls.2018.01327). Arabidopsis thaliana (ecotype Col-0) seeds were germinated on full MS growth medium for three days without presence of any treatment. After that they were transferred to the same medium containing 10 nM concertation of compound 61 in the absence or presence of the abiotic stress factor. Dimethyl sulfoxide (DMSO) was used as a solvent control (mock) in all variants. The dynamics of the shoot biomass formation and the relative growth rate were evaluated by recording the green area twice a day during the 6 days of growth after the seedling transfer. The abiotic stress conditions caused severe penalty in both traits evaluated. The salt and mannitol stress reduced the shoot yield by 63 % and 42 %, respectively, whereas presence of the compound 61 turned back the penalty by almost 20 % (Table 3 and Fig. 1). […] 11 % (Table 3).

winter rapeseed = experiment: field trial, foliar application, seed yield of winter rapeseed; assay type: in vivo; settings: 5 µM in 300 L per hectare; for weight of one thousand seeds: control 5.51 g; for seed yield compared to the control (100 %): foliar
Method: In 2017, the effect of foliar application of compound 61 (5 µM concentration in a volume of 300 L per hectare) on seed yield of winter rapeseed in field conditions was determined. The field trials were performed according to "good agricultural practice". Substance 61 was applied to plants in two different growth phases - BBCH 30 and BBCH 33-35. […] The weight of one thousand seeds in the treated plants was 5.7 g (BBCH 30) and 5.8 g (BBCH 33-35). This phenomenon contributed to the increase in total seed yield.

Arabidopsis thaliana [2] = experiment: foliar application, lifespan of Arabidopsis under optimal conditions; assay type: in vivo; settings: sprayed with 0.1 µM aqueous solution in phase of 4 true leaves, n = 25, compared to control plants
Method: Young Arabidopsis thaliana plants grown in small pots in a soil were sprayed with a 0.1 µM aqueous solution of substance 61 in phase of 4 true leaves (within 14-20 days after sowing).
Treated plants (n = 25) and control plants (n = 25) were further grown under optimal conditions until their natural death as in Example 25. […] The treated plants remained more green for a longer period of time (delayed senescence), which allowed them to accumulate more products of photosynthesis, which in turn may have contributed to a higher yield of these plants.

[3] = tested on: segments of wheat leaves (Triticum aestivum cv. Hereward); experiment: wheat leaf senescence assay performed in the dark (chlorophyll retention in detached leaf segments); assay type: in vivo; settings: Triticum aestivum, foliar, 96 h, read-out: (% of chlorophyll above control)
Method: Seeds of winter wheat (Triticum aestivum cv. Hereward) was washed under running water for 4 hours and then sown in vermiculite saturated with Knop's nutrient solution. The trays with seeds were placed in an air-conditioned growth chamber with a 16/8 hour light regime (light intensity 50 µmol.m^-2.s^-1) and a temperature of 15 °C. After 7 days, the seedlings had developed the first […] and the second leaf began to grow. Top sections approximately 4 cm long were excised from the first leaves of 4 plants and their combined weight was adjusted to exactly 100 mg. The basal ends of these 4 leaf segments were placed in the wells of microtiter polystyrene plates containing solution (150 µL) of the tested derivative. The plates were placed in a plastic box with filter paper, which was saturated with water (to maintain the maximum humidity). After 96 hours of incubation in the dark at 25 °C, the leaf segments were removed and the chlorophyll was extracted to 5 mL of 80% ethanol by heating the leaf segments in ethanol at 80 °C for 40 min. The sample volume was then adjusted to 5 mL by adding 80% ethanol. The absorbance of the extracts was measured at 665 nm. Chlorophyll extracts from leaf segments incubated in deionized water (so-called yellow control) were also measured as controls. Freshly cut leaves (100 mg) were used as a green control, from which chlorophyll was extracted and measured in the same manner. The calculated values are the average of 5 replicates and the whole experiment was repeated two times. The tested compounds were dissolved in dimethyl sulfoxide (DMSO) to a concentration 10^-2 M. This stock solution was further diluted with water to a concentration of 10 micromolar. At this concentration, the substances were tested.

Arabidopsis thaliana [4] = experiment: foliar application, seed yield in Arabidopsis; assay type: in vivo
Method: In our experiment, young Arabidopsis thaliana plants were grown in small pots in soil and they were sprayed with a 0.1 µM compound 61 (aq solution) in phase of 4 true leaves (about 14-20 days after sowing). Treated plants (n = 25) and control plants (n = 25) were further grown under optimal conditions until their natural death. Subsequently, seeds were harvested from all plants and the yield was evaluated. […] This means a 19 % increase in total seed yield.
This means an increase in total seed yield of 23 %.

[5] = molecular target: T1, maize enzyme cytokinin oxidase/dehydrogenase 1 (ZmCKX1) (Zea mays, UniProt Q9T0N8); experiment: ZmCKX1 inhibition, PMS/MTT assay; assay type: biochemical
T1 construct: made in house; host or cells: Yarrowia lipolytica
T1 sequence (Q9T0N8 19-534): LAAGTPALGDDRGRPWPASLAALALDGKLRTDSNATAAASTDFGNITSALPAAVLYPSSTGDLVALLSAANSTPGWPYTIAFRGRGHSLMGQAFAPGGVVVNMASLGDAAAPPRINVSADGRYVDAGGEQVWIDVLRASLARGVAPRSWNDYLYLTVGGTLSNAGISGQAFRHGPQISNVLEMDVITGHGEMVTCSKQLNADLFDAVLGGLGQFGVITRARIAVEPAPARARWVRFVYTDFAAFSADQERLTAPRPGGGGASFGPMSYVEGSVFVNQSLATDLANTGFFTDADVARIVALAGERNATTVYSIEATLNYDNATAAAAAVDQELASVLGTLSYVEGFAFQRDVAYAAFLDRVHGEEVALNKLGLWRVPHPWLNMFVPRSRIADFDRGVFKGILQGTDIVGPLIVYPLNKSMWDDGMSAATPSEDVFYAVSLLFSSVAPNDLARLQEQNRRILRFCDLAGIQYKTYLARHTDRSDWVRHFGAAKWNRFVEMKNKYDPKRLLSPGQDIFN
Method: The IC50 (concentration of a substance that causes 50% inhibition of the enzyme activity) was measured by PMS/MTT assay [phenazine methosulphate/3-(4,5-dimethylthiazol-2-yl)-2,5-diphenyltetrazolium bromide]. The assay was performed in 96-well microtiter plates. Each well contained a reaction mixture with a final concentration of: 0.1 M KH2PO4, pH 7.4, 1 mM MTT, 0.2 mM PMS, tested substance in a concentration range of 0.1 nM - 1 µM and 10 µM N^6-isopentenyladenine (iP) as a substrate. To this reaction mixture 100 µL of medium containing the active enzyme ZmCKX1 was added. The enzyme was produced by the yeast Yarrowia lipolytica and isolated according to the protocol (Kopečný D. et al., 2005, […] 87:1011-1022). The plates were incubated for 30 min at 37 °C and the enzymatic reaction was stopped by the addition of 25 µL of 35% acetic acid. Then, the absorbance at 578 nm was measured on a spectrophotometer, and the absorbance of the sample without the substrate was substracted as a reference value. The IC50 value was determined from the concentration-dependent curves in GraphPad Prism software. The values shown in Table 1 are the average of at least two measurements each performed in three repetitions. […] This also applies to 3,5-DCl-Ph-U derivatives.

[6] = sprayed with 0.1 µM aq solution in phase of 4 true leaves, n = 25, optimal conditions

## O=C(Nc1cccc(OC(F)(F)F)c1)Nc1ccccc1CCO [Compound 61, 1-[2-(2-Hydroxyethyl)phenyl]-3-(3-trifluoromethoxyphenyl)urea]
[1]; 100 mM NaCl (saline stress) or 100 mM mannitol (osmotic stress)
  shoot yield: penalty caused by stress turned back: ~20%
[1]; 100 mM NaCl or 100 mM mannitol
  average relative growth rate: effect of the stressors reduced: ~11%
Winter rapeseed; applied at BBCH 30
  weight of one thousand seeds: 5.7 g
Winter rapeseed; applied at BBCH 33-35
  weight of one thousand seeds: 5.8 g
Winter rapeseed; applied at BBCH 30, 2017
  seed yield compared to the control (100 %): 105.7%
Winter rapeseed; applied at BBCH 33-35, 2017
  seed yield compared to the control (100 %): 107.5%
Arabidopsis thaliana [2]
  longer viability (average): 10 days
[3]
  activation at 10 µM: 24%
Arabidopsis thaliana [4]; 0.1 µM spray, compared to control plants
  increase in total seed yield: 19% and 23%
Arabidopsis thaliana [4]; [6]
  seeds per silique (average): 52 (± 4) and 49 (± 6)
  total seed yield per plant: 155 (± 19) mg and 138 (± 15) mg
[5]
  IC50: 180 nM
